{"source": "patent US20250206777A1", "about": "“COMPOUND - DIAGNOSTIC MARKER FOR INTESTINAL CANCER, METHOD FOR DETECTING ENZYMATIC ACTIVITY, METHOD FOR DIAGNOSIS OF INTESTINAL CANCER, KIT COMPRISING THE COMPOUND, USES OF THE COMPOUND AND METHOD FOR THE TREATMENT OF INTESTINAL CANCER” (URTESTE S.A., priority 2022, published 2025)", "key": {"[1]": {"system": "proteolytic enzymes in urine from a subject suffering from intestinal cancer", "experiment": "Hydrolysis of the chromogenic substrate in urine from subjects with intestinal cancer (absorbance at 405 nm)", "assay_type": "biochemical, human", "details": "for absorbance: 405 nm, 60 minutes, 37° C., pH 8.0, triplicate", "description": "The activity of the novel compounds according to the invention was studied in a group of 20 subjects diagnosed with intestinal cancer using the representative compound according to the invention. […] The remaining compounds according to the invention are characterized by the analogous mechanism of action. For this purpose, the representative compound according to the invention, ABZ^1-Asn^2-Phe^3-Ser^4-Pro^5-ANB^6—NH2, was dissolved in dimethyl sulfoxide (at a concentration of 0.5 mg/mL) and then 50 μL of the solution was mixed with 120 μL of a buffer (200 mM Tris-HCl, pH 8.0) and 80 μL of urine from a subject suffering from intestinal cancer. The measurement was performed on a 96-well plate designed for measuring absorbance and each sample was analysed in triplicate at the temperature of 37° C. The duration of the measurement was 60 minutes. During the measurement, the wavelength characteristic for the chromophore (ANB-NH2) being released was monitored at the wavelength 405 nm (range 380-430 nm)."}, "[2]": {"system": "at least one enzyme of the studied material", "experiment": "Dependence of substrate hydrolysis on reaction pH", "assay_type": "biochemical", "details": "FIG. 4", "description": "Furthermore, measurements concerning the dependence of the proteolytic activity of the representative compound according to the invention on the reaction pH were performed."}, "[3]": {"system": "urine samples taken from healthy persons", "experiment": "Hydrolysis of the chromogenic substrate in urine from healthy subjects (absorbance at 405 nm)", "assay_type": "biochemical, human", "details": "for absorbance: healthy subject, 405 nm, 60 minutes, 37° C., pH 8.0, triplicate"}, "[4]": {"system": "urine taken from a person diagnosed with intestinal cancer", "experiment": "RP HPLC analysis of substrate cleavage in urine from a person with intestinal cancer", "assay_type": "biochemical, human", "details": "randomly selected urine sample from a person diagnosed with intestinal cancer"}}, "note": "“And” between values parts separate entries of the source, which are not always exact repeats. Equal entries are not always repeated. *1 amine or outer side, *2 acyl side, *3 side chain or, on linkers, in order; H or OH if unused. Where no end group is shown, it is not given here. [ ]: non-standard residue; d: D form. Benzoyl(5-NH,2-NO2) = O=C(c1cc(N[*:1])ccc1[N+](=O)[O-])[*:2]; 2Abz = Nc1ccccc1C(=O)O"}
{"substance": "ABZ-Asn-Phe-Ser-Pro-ANB-NH2 ([2Abz]NFSP-{Benzoyl(5-NH,2-NO2)-NH2}) [chromogenic/fluorogenic peptide substrate; ABZ is 2-aminobenzoic acid, ANB-NH2 is amide of 5-amino-2-nitrobenzoic acid]", "values": [{"measurement": "cleavage of the substrate", "setting": "[1]; all samples 1-20 from persons suffering from intestinal cancer", "result": "underwent cleavage"}, {"measurement": "absorbance", "setting": "[1]; urine sample 3, intestinal cancer", "result": "0.035 and 0.034 and 0.036"}, {"measurement": "absorbance", "setting": "[1]; urine sample 4, intestinal cancer", "result": "0.0314 and 0.0313 and 0.0385"}, {"measurement": "absorbance", "setting": "[1]; urine sample 7, intestinal cancer", "result": "0.041 and 0.039 and 0.04"}, {"measurement": "absorbance", "setting": "[1]; urine sample 8, intestinal cancer", "result": "0.0257 and 0.0219 and 0.0258"}, {"measurement": "absorbance", "setting": "[1]; urine sample 9, intestinal cancer", "result": "0.056 and 0.064 and 0.06"}, {"measurement": "absorbance", "setting": "[1]; urine sample 10, intestinal cancer", "result": "0.025 and 0.024 and 0.026"}, {"measurement": "absorbance", "setting": "[1]; urine sample 11, intestinal cancer", "result": "0.015 and 0.016 and 0.027"}, {"measurement": "absorbance", "setting": "[1]; urine sample 12, intestinal cancer", "result": "0.0916 and 0.0979 and 0.101"}, {"measurement": "absorbance", "setting": "[1]; urine sample 13, intestinal cancer", "result": "0.046 and 0.0337 and 0.0461"}, {"measurement": "absorbance", "setting": "[1]; urine sample 14, intestinal cancer", "result": "0.025 and 0.018 and 0.0182"}, {"measurement": "absorbance", "setting": "[1]; urine sample 15, intestinal cancer", "result": "0.031 and 0.028 and 0.02"}, {"measurement": "absorbance", "setting": "[1]; urine sample 16, intestinal cancer", "result": "0.0183 and 0.0293 and 0.0246"}, {"measurement": "absorbance", "setting": "[1]; urine sample 17, intestinal cancer", "result": "0.073 and 0.07 and 0.046"}, {"measurement": "absorbance", "setting": "[1]; urine sample 18, intestinal cancer", "result": "0.016 and 0.0186 and 0.0202"}, {"measurement": "absorbance", "setting": "[1]; urine sample 19, intestinal cancer", "result": "0.036 and 0.04 and 0.038"}, {"measurement": "dependence of the proteolytic activity on the reaction pH", "setting": "[2]", "result": "maximum activity at alkaline pH"}, {"measurement": "absorbance", "setting": "[3]; urine sample 1Z", "result": 0.00000}, {"measurement": "absorbance", "setting": "[3]; urine sample 2Z", "result": 0.00000}, {"measurement": "absorbance", "setting": "[3]; urine sample 3Z", "result": 0.00000}, {"measurement": "absorbance", "setting": "[3]; urine sample 4Z", "result": 0.00000}, {"measurement": "absorbance", "setting": "[3]; urine sample 5Z", "result": 0.00000}, {"measurement": "absorbance", "setting": "[3]; urine sample 6Z", "result": 0.00000}, {"measurement": "absorbance", "setting": "[3]; urine sample 7Z", "result": 0.00000}, {"measurement": "absorbance", "setting": "[3]; urine sample 8Z", "result": 0.00000}, {"measurement": "absorbance", "setting": "[3]; urine sample 9Z", "result": 0.00000}, {"measurement": "absorbance", "setting": "[3]; urine sample 10Z", "result": 0.00000}, {"measurement": "absorbance", "setting": "[3]; urine sample 11Z", "result": 0.00000}, {"measurement": "absorbance", "setting": "[3]; urine sample 12Z", "result": 0.00000}, {"measurement": "absorbance", "setting": "[3]; urine sample 13Z", "result": 0.00000}, {"measurement": "absorbance", "setting": "[3]; urine sample 14Z", "result": 0.00000}, {"measurement": "absorbance", "setting": "[3]; urine sample 15Z", "result": 0.00000}, {"measurement": "absorbance", "setting": "[3]; urine sample 16Z", "result": 0.00000}, {"measurement": "absorbance", "setting": "[3]; urine sample 17Z", "result": 0.00000}, {"measurement": "absorbance", "setting": "[3]; urine sample 18Z", "result": 0.00000}, {"measurement": "absorbance", "setting": "[3]; urine sample 19Z", "result": 0.00000}, {"measurement": "absorbance", "setting": "[3]; urine sample 20Z", "result": 0.00000}, {"measurement": "increase in absorbance / hydrolysis of the tested compound", "setting": "[3]; urine samples from healthy persons 1Z to 20Z", "result": "does not lead to an increase in absorbance"}, {"measurement": "cleavage products by RP HPLC", "setting": "[4]", "result": "cleaves into the peptide fragment ABZ-Asn-Phe-Ser-Pro-OH and the chromophore group of the compound (ANB-NH2)"}]}
